Laboratory results from patent publication US20230365553A1, “COMPOUNDS AND COMPOSITIONS FOR TREATING CONDITIONS ASSOCIATED WITH STING ACTIVITY” (IFM Due, Inc., priority 2020, published 2023).

target: T1, STING (Homo sapiens, UniProt Q86WV6, G230A/H232R/R293Q/R71H); experiment: STING reporter assay: luciferase reporter activity in THP1-Dual KO-IFNAR2 cells stimulated with 2′3′cGAMP; format: cell-based; details: 15 μM 2′3′cGAMP, 24h, read-out: hSTING EC50
T1 construct: host or cells: THP1-Dual KO-IFNAR2 cells
T1 sequence (Q86WV6 whole entry R71H/G230A/H232R/R293Q): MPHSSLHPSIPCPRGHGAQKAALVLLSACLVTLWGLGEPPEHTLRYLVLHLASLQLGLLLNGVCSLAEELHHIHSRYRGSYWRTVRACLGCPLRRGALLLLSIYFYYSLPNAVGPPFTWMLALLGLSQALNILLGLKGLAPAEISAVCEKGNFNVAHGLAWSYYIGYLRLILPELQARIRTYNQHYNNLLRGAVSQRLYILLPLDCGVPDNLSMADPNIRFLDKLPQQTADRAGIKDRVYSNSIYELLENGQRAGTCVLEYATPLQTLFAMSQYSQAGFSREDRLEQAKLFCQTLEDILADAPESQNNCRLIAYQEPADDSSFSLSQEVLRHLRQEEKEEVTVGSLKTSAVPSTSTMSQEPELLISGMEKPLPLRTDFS
Method in brief: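 THP1-Dual KO-IFNAR2 cells (2×10E6 cells/mL) were exposed to compounds at 0.0017-100 μM, then stimulated with 2′3′cGAMP (15 μM final) transfected via Lipofectamine 2000. After 24h at 37° C., secreted luciferase in supernatant was read by QUANTI-Luc luminescence; EC50 derived from concentration-response.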

Row | SMILES | EC50 [µM]
1 | O=C(Nc1c[nH]c2ccc(-c3cnn(-c4ccc(C(F)(F)F)cc4)c3)cc12)C1(C(F)(F)F)CC1 [Compound 238, 1-(trifluoromethyl)-N-(5-(1-(4-(trifluoromethyl)phenyl)-1H-pyrazol-4-yl)-1H-indol-3-yl)cyclopropane-1-carboxamide] | 1 to 5
2 | O=C(Nc1c[nH]c2ccc(-c3cnn(-c4ccc(C(F)(F)F)cc4)c3)cc12)C1CC1(F)F (stereo not shown) [Compound 239, 2,2-difluoro-N-(5-(1-(4-(trifluoromethyl)phenyl)-1H-pyrazol-4-yl)-1H-indol-3-yl)cyclopropane-1-carboxamide] | 0.2 to 1
3 | CS(=O)(=O)CCC(=O)Nc1c[nH]c2ccc(-c3cnn(-c4ccc(C(F)(F)F)cc4)c3)cc12 [Compound 240, 3-(methylsulfonyl)-N-(5-(1-(4-(trifluoromethyl)phenyl)-1H-pyrazol-4-yl)-1H-indol-3-yl)propanamide] | 0.2 to 1
4 | O=C(Nc1c[nH]c2ccc(-c3cnn(-c4ccc(C(F)(F)F)cc4)c3)cc12)C1(F)CCC1 [Compound 241, 1-fluoro-N-(5-(1-(4-(trifluoromethyl)phenyl)-1H-pyrazol-4-yl)-1H-indol-3-yl)cyclobutane-1-carboxamide] | 0.2 to 1
5 | O=C(Nc1c[nH]c2ccc(-c3cnn(-c4ccc(C(F)(F)F)cc4)c3)cc12)C1CC(O)C1 (stereo not shown) [Compound 242, 3-hydroxy-N-(5-(1-(4-(trifluoromethyl)phenyl)-1H-pyrazol-4-yl)-1H-indol-3-yl)cyclobutane-1-carboxamide] | 0.2 to 1
6 | C[C@@H](c1cccc(C(F)(F)F)c1)n1cc(-c2ccc3[nH]cc(NC(=O)C4CCC4)c3c2)cn1 [Compound 243, (S)-N-(5-(1-(1-(3-(trifluoromethyl)phenyl)ethyl)-1H-pyrazol-4-yl)-1H-indol-3-yl)cyclobutanecarboxamide] | 0.2 to 1
7 | CC(=O)Nc1c[nH]c2ccc(-c3cnn(-c4ccc(C(F)(F)F)cc4)c3)cc12 [Compound 245, N-(5-(1-(4-(trifluoromethyl)phenyl)-1H-pyrazol-4-yl)-1H-indol-3-yl)acetamide] | 0.04 to 0.2
8 | CC(=O)N(C)c1c[nH]c2ccc(-c3cnn(-c4ccc(C(F)(F)F)cc4)c3)cc12 [Compound 246, N-methyl-N-(5-(1-(4-(trifluoromethyl)phenyl)-1H-pyrazol-4-yl)-1H-indol-3-yl)acetamide] | 5 to 100
9 | O=C(Nc1c[nH]c2ccc(-c3cnn(-c4ccc(C(F)(F)F)cc4)c3)cc12)C1CN(CC(F)(F)F)C1 [Compound 247, 1-(2,2,2-trifluoroethyl)-N-(5-(1-(4-(trifluoromethyl)phenyl)-1H-pyrazol-4-yl)-1H-indol-3-yl)azetidine-3-carboxamide] | 0.2 to 1
10 | CCC(=O)Nc1c[nH]c2ccc(-c3cnn(-c4cnc(CC)cn4)c3)cc12 [Compound 248, N-(5-(1-(5-ethylpyrazin-2-yl)-1H-pyrazol-4-yl)-1H-indol-3-yl)propionamide] | 1 to 5
11 | CN1CC(C(=O)Nc2c[nH]c3ccc(-c4cnn(-c5ccc(C(F)(F)F)cc5)c4)cc23)CC1=O (stereo not shown) [Compound 249, 1-methyl-5-oxo-N-(5-(1-(4-(trifluoromethyl)phenyl)-1H-pyrazol-4-yl)-1H-indol-3-yl)pyrrolidine-3-carboxamide] | 1 to 5
12 | CC(=O)Nc1c[nH]c2ccc(-c3cnn(Cc4cnc(C5CCC(F)(F)CC5)c(F)c4)c3)cc12 [Compound 250, N-(5-(1-((6-(4,4-difluorocyclohexyl)-5-fluoropyridin-3-yl)methyl)-1H-pyrazol-4-yl)-1H-indol-3-yl)acetamide] | 5 to 100
13 | O=C(Nc1c[nH]c2ncc(-c3cnn(-c4ccc(C(F)(F)F)cc4)c3)cc12)C1CCC1 [Compound 251, N-(5-(1-(4-(trifluoromethyl)phenyl)-1H-pyrazol-4-yl)-1H-pyrrolo[2,3-b]pyridin-3-yl)cyclobutanecarboxamide] | 5 to 100
14 | CN1C(=O)CCC1C(=O)Nc1c[nH]c2ccc(-c3cnn(-c4ccc(C(F)(F)F)cc4)c3)cc12 (stereo not shown) [Compound 252, 1-methyl-5-oxo-N-(5-(1-(4-(trifluoromethyl)phenyl)-1H-pyrazol-4-yl)-1H-indol-3-yl)pyrrolidine-2-carboxamide] | 1 to 5
15 | O=C(Nc1c[nH]c2ccc(-c3cnn(Cc4ccc(C(F)(F)F)cn4)c3)cc12)C1CCC1 [Compound 253, N-(5-(1-((5-(trifluoromethyl)pyridin-2-yl)methyl)-1H-pyrazol-4-yl)-1H-indol-3-yl)cyclobutanecarboxamide] | 0.2 to 1
16 | CN1CCC1C(=O)Nc1c[nH]c2ccc(-c3cnn(-c4ccc(C(F)(F)F)cc4)c3)cc12 (stereo not shown) [Compound 254, 1-methyl-N-(5-(1-(4-(trifluoromethyl)phenyl)-1H-pyrazol-4-yl)-1H-indol-3-yl)azetidine-2-carboxamide] | 5 to 100
17 | O=C(Nc1c[nH]c2cnc(-c3cnn(-c4ccc(C(F)(F)F)cc4)c3)cc12)C1CCC1 [Compound 255, N-(5-(1-(4-(trifluoromethyl)phenyl)-1H-pyrazol-4-yl)-1H-pyrrolo[2,3-c]pyridin-3-yl)cyclobutanecarboxamide] | 5 to 100

Now from value to molecule:

Row | EC50 [µM] | SMILES
18 | 1 to 5 | CCC(=O)Nc1c[nH]c2ccc(-c3cnn(-c4ccc(C(F)(F)F)c(COC)c4)c3)cc12 [Compound 256, N-(5-(1-(3-(methoxymethyl)-4-(trifluoromethyl)phenyl)-1H-pyrazol-4-yl)-1H-indol-3-yl)propionamide]
19 | 0.2 to 1 | CC(c1cccc(C(F)(F)F)c1)n1cc(-c2ccc3[nH]cc(NC(=O)C4CCC4)c3c2)cn1 (stereo not shown) [Compound 257, N-(5-(1-(1-(3-(trifluoromethyl)phenyl)ethyl)-1H-pyrazol-4-yl)-1H-indol-3-yl)cyclobutanecarboxamide]
20 | 0.04 to 0.2 | O=C(Nc1c[nH]c2ccc(-c3cnn(Cc4ccc(C(F)(F)F)cc4)c3)cc12)C1CCC1 [Compound 258, N-(5-(1-(4-(trifluoromethyl)benzyl)-1H-pyrazol-4-yl)-1H-indol-3-yl)cyclobutanecarboxamide]
21 | 0.2 to 1 | O=C(Nc1c[nH]c2ccc(-c3cnn(-c4ccc(C5CC(F)(F)C5)cc4)c3)cc12)C1CCC1 [Compound 259, N-(5-(1-(4-(3,3-difluorocyclobutyl)phenyl)-1H-pyrazol-4-yl)-1H-indol-3-yl)cyclobutanecarboxamide]
22 | 5 to 100 | O=C(Nc1c[nH]c2ccc(-c3cnn(-c4ccc(C(F)(F)F)cc4)c3)cc12)c1ncc[nH]1 [Compound 260, N-(5-(1-(4-(trifluoromethyl)phenyl)-1H-pyrazol-4-yl)-1H-indol-3-yl)-1H-imidazole-2-carboxamide]
23 | 1 to 5 | O=C(Nc1c[nH]c2ccc(-c3cnn(-c4ccc(C(F)(F)F)cc4)c3)cc12)c1cnn[nH]1 [Compound 261, N-(5-(1-(4-(trifluoromethyl)phenyl)-1H-pyrazol-4-yl)-1H-indol-3-yl)-1H-1,2,3-triazole-5-carboxamide]
24 | 0.2 to 1 | O=C(Nc1c[nH]c2ccc(-c3cnn(-c4ccc(C(F)(F)F)cc4)c3)cc12)c1ccno1 [Compound 262, N-(5-(1-(4-(trifluoromethyl)phenyl)-1H-pyrazol-4-yl)-1H-indol-3-yl)isoxazole-5-carboxamide]
25 | 0.2 to 1 | O=C(Nc1c[nH]c2ccc(-c3cnn(-c4ccc(C(F)(F)F)cc4)c3)cc12)c1cnco1 [Compound 263, N-(5-(1-(4-(trifluoromethyl)phenyl)-1H-pyrazol-4-yl)-1H-indol-3-yl)oxazole-5-carboxamide]
